{"source": "paper PMC3702004", "about": "“Comparison of Intake and Systemic Relative Effect Potencies of Dioxin-like Compounds in Female Mice after a Single Oral Dose” (Environmental Health Perspectives, 2013)", "key": {"Cyp1b1 mRNA in liver": {"tested_on": "Cyp1b1 mRNA in liver", "assay": "Cyp1b1 gene expression in liver (real-time PCR)", "type": "in vivo, female C57BL/6 mice", "details": "for BMR20TCDD Liver Cyp1b1 mRNA: 3 days after single oral dose; for REP Liver Cyp1b1 mRNA: relative to TCDD; for Effect on hepatic Cyp1b1 mRNA expression: single oral dose, day 3", "experimental": "(§1) Animals. Eight-week-old female C57BL/6 mice (Harlan laboratories, Venray, the Netherlands) were randomly assigned to treatment groups (six animals per group) and allowed to acclimate for 1.5 weeks. The animals were housed in groups in standard cages and conditions (23 ± 2°C, 50–60% relative humidity, 12-hr dark/light cycle) with free access to food and water. Mice received a single dose of test compound by oral gavage at a dosing volume of 10 mL/kg body weight (BW). Mice treated with corn oil vehicle (10 mL/kg BW) served as controls. For each congener, five different doses were administered, ranging from 0.5–100 μg/kg BW (TCDD) to 5,000–500,000 µg/kg BW (PCB-153). Detailed information on doses is provided in Supplemental Material, Table S1 (http://dx.doi.org/10.1289/ehp.1206336). On day 3 after dosing, animals were euthanized by CO2/O2 asphyxiation, and blood was immediately collected from the abdominal aorta. The liver, thymus, spleen, and adipose tissue were removed, weighed (liver, thymus, and spleen), snap frozen, and stored at –80°C. All animal treatments were performed with permission of the Animal Ethical Committee (DEC Utrecht) and performed according to the [Law on Animal Experiments (1977)]. Animals were treated humanely and with regard for alleviation of suffering.\n(§2) RNA isolation and quantitative real-time polymerase chain reaction (PCR). Total RNA was isolated from liver and PBLs using a QIAGEN RNeasy kit (QIAGEN). Purity and concentration of the isolated RNA was determined by measuring the absorbance ratio at 260/280 nm and 230/260 nm with a Nanodrop 2000 spectrophotometer (Thermo Scientific, Asheville, NC, USA). RNA was reverse transcribed to complementary DNA (cDNA) using the iScript cDNA synthesis Kit (Bio-Rad, Veenendaal, the Netherlands). Quantitative real-time PCR analyses were performed using the iQ Real-Time PCR Detection System with SYBR green (Bio-Rad). Amplification reactions were set up with […] containing 12.5 μL iQ SYBR Green Supermix (Bio-rad), 0.5 μL distilled H2O, 1 μL (10 μM) forward primer, 1 μL (10 μM) reverse primer, and 10 μL first strand cDNA (10X diluted). Primer sequences were as follows: Cyp1a1: forward-5´-GGTTAACCATGACCGGGAACT-3´ and reverse-5´-TGCCCAAACCAAAGAGAGTGA-3´ ([Schulz et al. 2012]); Cyp1a2: forward-5´-ACATTCCCAAGGAGCGCTGTATCT-3´ and reverse-5´-GTCGATGGCCGAGTTGTTATTGGT-3´ ([Flaveny et al. 2010]); Cyp1b1: forward-5´-GTGGCTGCTCATCCTCTTTACC-3´ and reverse-5´-CCCACAACCTGGTCCAACTC-3´ ([Berge et al. 2004]); β-actin: forward-5´-ATGCTCCCCGGGCTGTAT-3´ and reverse-5´-CATAGGAGTCCTTCTGACCCATTC-3´ ([Schulz et al. 2012]). All primers were run through the National Center for Biotechnology Information Primer-BLAST database (http://www.ncbi.nlm.nih.gov/tools/primer-blast/) to confirm specificity and validate for optimal annealing temperature (60°C for all primers) and efficiency. The efficiency of all primer pairs was 98–102% (tested at 60°C). The following program was used for denaturation and amplification of cDNA: 3 min at 95°C, followed by 40 cycles of 15 sec at 95°C and 45 sec at 60°C. Gene expression for each sample was expressed as threshold cycle (Ct), normalized to the reference gene β-actin (ΔCt). We calculated fold induction relative to the control group.\n(§3) Data analysis. We obtained concentration–response curves using a sigmoidal dose–response nonlinear regression curve fit with variable slope (GraphPad Prism 6.01; GraphPad Software Inc., San Diego, CA, USA):\n(§4) In this Hill equation, y is the dependent variable (EROD activity or fold induction of mRNA levels), x the independent variable (administered or systemic dose), E0 is the estimated background response level, Emax is the maximum response, b is the estimated median effective concentration (EC50), and n is the shaping parameter of the Hill curve.\n(§5) Using the congener-specific BMR20TCDD concentration, REPs were calculated relatively to TCDD: […]"}, "[1]": {"details": "CYP1A2 knockout mice; ref Diliberto et al. 1997; cited from earlier work"}, "Cyp1b1 mRNA": {"tested_on": "Cyp1b1 mRNA", "assay": "Cyp1b1 gene expression in liver (real-time PCR)", "type": "in vivo, female C57BL/6 mice", "details": "female, C57BL/6, mouse, in vivo; single oral dose, day 3; read-out: Maximum induction of hepatic Cyp1b1 mRNA, of the maximal response of TCDD", "experimental": "as §1, §2, §3, §4, §5"}, "[2]": {"details": "dose metric Adm dose (µg/kg BW)"}, "[3]": {"details": "dose metric Syst adipose (ng/g lipid)"}, "[4]": {"details": "dose metric Syst liver (ng/g lipid)"}, "[5]": {"details": "dose metric Syst liver (ng/g liver)"}, "[6]": {"details": "dose metric Syst plasma (ng/g lipid)"}}}
{"smiles": "Clc1cc2oc3c(Cl)c(Cl)c(Cl)cc3c2cc1Cl", "note": "[Congener 4-PeCDF, 2,3,4,7,8-pentachlorodibenzofuran]", "values": [{"measurement": "BMR20TCDD Liver Cyp1b1 mRNA", "setting": "Cyp1b1 mRNA in liver; dose metric Adm dose", "result": 150, "unit": "µg/kg BW"}, {"measurement": "BMR20TCDD Liver Cyp1b1 mRNA", "setting": "Cyp1b1 mRNA in liver; dose metric Syst adipose", "result": 461, "unit": "ng/g lipid"}, {"measurement": "BMR20TCDD Liver Cyp1b1 mRNA", "setting": "Cyp1b1 mRNA in liver; dose metric Syst plasma", "result": 44.6, "unit": "ng/g lipid"}, {"measurement": "REP Liver Cyp1b1 mRNA", "setting": "Cyp1b1 mRNA in liver; [2]", "result": 0.02}, {"measurement": "REP Liver Cyp1b1 mRNA", "setting": "Cyp1b1 mRNA in liver; [3]", "result": 0.02}, {"measurement": "REP Liver Cyp1b1 mRNA", "setting": "Cyp1b1 mRNA in liver; [4]", "result": 0.01}, {"measurement": "REP Liver Cyp1b1 mRNA", "setting": "Cyp1b1 mRNA in liver; [5]", "result": 0.02}, {"measurement": "REP Liver Cyp1b1 mRNA", "setting": "Cyp1b1 mRNA in liver; [6]", "result": 0.3}, {"measurement": "Effect on hepatic Cyp1b1 mRNA expression", "setting": "Cyp1b1 mRNA in liver", "result": "dose-dependently increased"}]}
{"smiles": "Clc1ccc(-c2cc(Cl)c(Cl)c(Cl)c2Cl)cc1Cl", "note": "[PCB-156, 2,3,3´,4,4´,5-hexachlorobiphenyl]", "values": [{"measurement": "BMR20TCDD Liver Cyp1b1 mRNA", "setting": "Cyp1b1 mRNA in liver; dose metric Adm dose", "result": "95,664 µg/kg BW"}, {"measurement": "BMR20TCDD Liver Cyp1b1 mRNA", "setting": "Cyp1b1 mRNA in liver; dose metric Syst adipose", "result": "745,126 ng/g lipid"}, {"measurement": "BMR20TCDD Liver Cyp1b1 mRNA", "setting": "Cyp1b1 mRNA in liver; dose metric Syst plasma", "result": "553,459 ng/g lipid"}, {"measurement": "REP Liver Cyp1b1 mRNA", "setting": "Cyp1b1 mRNA in liver; [2]", "result": 0.00004}, {"measurement": "REP Liver Cyp1b1 mRNA", "setting": "Cyp1b1 mRNA in liver; [3]", "result": 0.00001}, {"measurement": "REP Liver Cyp1b1 mRNA", "setting": "Cyp1b1 mRNA in liver; [4]", "result": 0.0003}, {"measurement": "REP Liver Cyp1b1 mRNA", "setting": "Cyp1b1 mRNA in liver; [5]", "result": 0.0004}, {"measurement": "REP Liver Cyp1b1 mRNA", "setting": "Cyp1b1 mRNA in liver; [6]", "result": 0.00002}, {"measurement": "Effect on hepatic Cyp1b1 mRNA expression", "setting": "Cyp1b1 mRNA in liver", "result": "dose-dependently increased"}]}
{"smiles": "Clc1cc2c(cc1Cl)Oc1cc(Cl)c(Cl)cc1O2", "note": "[TCDD, 2,3,7,8-tetrachlorodibenzodioxin, reference compound]", "values": [{"measurement": "BMR20TCDD Liver Cyp1b1 mRNA", "setting": "Cyp1b1 mRNA in liver; dose metric Adm dose", "result": 3.55, "unit": "µg/kg BW"}, {"measurement": "BMR20TCDD Liver Cyp1b1 mRNA", "setting": "Cyp1b1 mRNA in liver; dose metric Syst adipose", "result": 10.3, "unit": "ng/g lipid"}, {"measurement": "BMR20TCDD Liver Cyp1b1 mRNA", "setting": "Cyp1b1 mRNA in liver; dose metric Syst plasma", "result": 11.6, "unit": "ng/g lipid"}, {"measurement": "REP Liver Cyp1b1 mRNA", "setting": "Cyp1b1 mRNA in liver; [2]", "result": 1}, {"measurement": "REP Liver Cyp1b1 mRNA", "setting": "Cyp1b1 mRNA in liver; [3]", "result": 1}, {"measurement": "REP Liver Cyp1b1 mRNA", "setting": "Cyp1b1 mRNA in liver; [4]", "result": 1}, {"measurement": "REP Liver Cyp1b1 mRNA", "setting": "Cyp1b1 mRNA in liver; [5]", "result": 1}, {"measurement": "REP Liver Cyp1b1 mRNA", "setting": "Cyp1b1 mRNA in liver; [6]", "result": 1}, {"measurement": "Effect on hepatic Cyp1b1 mRNA expression", "setting": "Cyp1b1 mRNA in liver", "result": "dose-dependently increased"}, {"measurement": "Liver:adipose ratio", "setting": "[1]", "result": "< 0.3"}]}
{"smiles": "Clc1cc2c(cc1Cl)Oc1c(cc(Cl)c(Cl)c1Cl)O2", "note": "[PeCDD, 1,2,3,7,8-pentachlorodibenzodioxin]", "values": [{"measurement": "BMR20TCDD Liver Cyp1b1 mRNA", "setting": "Cyp1b1 mRNA in liver; dose metric Adm dose", "result": 10.1, "unit": "µg/kg BW"}, {"measurement": "BMR20TCDD Liver Cyp1b1 mRNA", "setting": "Cyp1b1 mRNA in liver; dose metric Syst adipose", "result": 19.4, "unit": "ng/g lipid"}, {"measurement": "BMR20TCDD Liver Cyp1b1 mRNA", "setting": "Cyp1b1 mRNA in liver; dose metric Syst plasma", "result": 18.5, "unit": "ng/g lipid"}, {"measurement": "REP Liver Cyp1b1 mRNA", "setting": "Cyp1b1 mRNA in liver; [2]", "result": 0.4}, {"measurement": "REP Liver Cyp1b1 mRNA", "setting": "Cyp1b1 mRNA in liver; [3]", "result": 0.5}, {"measurement": "REP Liver Cyp1b1 mRNA", "setting": "Cyp1b1 mRNA in liver; [4]", "result": 0.2}, {"measurement": "REP Liver Cyp1b1 mRNA", "setting": "Cyp1b1 mRNA in liver; [5]", "result": 0.3}, {"measurement": "REP Liver Cyp1b1 mRNA", "setting": "Cyp1b1 mRNA in liver; [6]", "result": 0.6}, {"measurement": "Effect on hepatic Cyp1b1 mRNA expression", "setting": "Cyp1b1 mRNA in liver", "result": "dose-dependently increased"}]}
{"smiles": "Clc1ccc(-c2cc(Cl)c(Cl)cc2Cl)cc1Cl", "note": "[PCB-118, 2,3´,4,4´,5-pentachlorobiphenyl]", "values": [{"measurement": "Emax", "setting": "Cyp1b1 mRNA", "result": "< 0.3", "unit": "%"}]}
{"smiles": "Clc1ccc(-c2cc(Cl)c(Cl)c(Cl)c2)cc1Cl", "note": "[PCB-126, 3,3´,4,4´,5-pentachlorobiphenyl]", "values": [{"measurement": "Effect on hepatic Cyp1b1 mRNA expression", "setting": "Cyp1b1 mRNA in liver", "result": "did not induce"}]}
